Assays:
A549 and SKMEL2 cells = experiment: CHK1 phosphorylation immunofluorescence after kinase inhibitor pretreatment and NTP or NTPO; format: cell-based, human; conditions: inhibitor pretreatment (5 or 10 μM, 1 h before plasma), followed by NTP or NTPO; FIG. 3A
Procedure: (§1) Cells were treated using a previously reported plasma jet device. A typical operating condition of the pulsed-dc plasma jet has the applied voltage 1.6 kV, repetition frequency 50 kHz, and duty ratio 10%. The working gas (helium) and reactive gas (oxygen) flow rate were kept constant at 500 and 5 SCCM (SCCM denotes cubic centimeter per minute at standard temperature and pressure), respectively. The cells were cultured on 12-mm microscope cover glass coated with gelatin from porcine skin (Sigma-Aldrich) and were treated with helium generated-NTP with or without the flow of oxygen gas. The exposed cover glass was then transferred to 12-well plates containing fresh medium and incubated at 37° C. in a humidified incubator supplemented with 5% CO2. If necessary, the cells were treated with 5 or 10 μM of specific inhibitors targeting ATR (ETP46464), ATM (KU55933), DNA-PK (NU7026), or PARP1 (AZD2281) for 1 h before plasma treatment and kept until cell harvest. […]
(§2) For immunofluorescence staining, cells were fixed with 4% formaldehyde (Sigma-Aldrich) for 10 min at room temperature and permeabilized with 0.5% Triton™ X-100 (Bio Basic). […] The images were captured using a fluorescence microscope (Nikon) equipped with the NIS-Elements 4.0 Nikon imaging software. For quantification, a minimum of 500 cells were analyzed from each of three independent experiments.

A549 and SK-MEL2 cells = experiment: γH2AX phosphorylation immunofluorescence (marker for DNA breaks); format: cell-based, human; conditions: FIG. 4A
Procedure: as §1, §2

SMILES	CHK1 phosphorylation (A549 and SKMEL2 cells)	γH2AX phosphorylation (A549 and SK-MEL2 cells; PARP-1 inhibitor plus treatment of NTP or NTPO)	γH2AX phosphorylation (A549 and SK-MEL2 cells; PARP-1 inhibitor, gas control)
CC(C)(C#N)c1ccc(N2C(=O)OCc3cnc4ccc(-c5cnc6ccccc6c5)cc4c32)cc1 [ETP 46464]	phosphorylation was not shown	–	–
O=C(c1cc(Cc2n[nH]c(=O)c3ccccc23)ccc1F)N1CCN(C(=O)C2CC2)CC1 [AZD2281, olaparib]	–	significantly increased	measured even in the case of gas control

Source: patent US20170319256A1, “METHOD OF SELECTIVELY KILLING CANCER CELLS USING LOW-TEMPERATURE PLASMA JET DEVICE AND METHOD OF TREATING TUMORS USING THE SAME” (Dong-A University Research Foundation for Industry-Academy …, priority 2016, published 2017)
